Data from US3988337A, “Substituted triamino-s-triazines” (BASF Wyandotte Corporation, priority 1974, dated 1976).

How the values were obtained:
[1] = Catalysis of toluene diisocyanate condensation to cellular/resinous carbodiimide products (Table I); details: 100 parts toluene diisocyanate
Method: Utilizing the triazines of Examples III-VI hereof, a series of cellular and resinous products characterized by carbodiimide linkages, as defined in the above-referred to patents, were prepared by the following procedure:
(§1) One hundred parts of toluene diisocyanate was admixed with a catalyst in accordance herewith. With stirring, the admixture was heated to its reaction initiation temperature at which time the reactants were transferred to a separate container for foaming.

[2] = Efficacy of triazine catalysts with 1 part methanol in the catalyst blend (Table II); details: 1 part of methanol introduced into the catalyst blend
Method: as §1
To test the efficacy of the instant catalysts, samples analogous to samples C, D and Control were prepared, but wherein 1 part of methanol was introduced into the catalyst blend.

Structure (SMILES) | Initiation Temperature ([1]; catalyst 2.0 parts) | Max. Exotherm ([1]; catalyst 2.0 parts) | Nature of Product ([1]; catalyst 2.0 parts) | Initiation Temperature ([1]; catalyst 1.0 part) | Max. Exotherm ([1]; catalyst 1.0 part) | Nature of Product ([1]; catalyst 1.0 part) | Initiation Temp. [2] | Nature of Product [2] | Maximum Exotherm [2]
CN(C)CCCN(CCO)c1nc(N(CCO)CCCN(C)C)nc(N(CCO)CCCN(C)C)n1 [Example III, 2,4,6-tris[3-dimethylamino-N-(2-hydroxyethyl)propylamino]-s-triazine] | 95 °C | 180 °C | Foam | – | – | – | – | – | –
CCCCN(CCCC)c1nc(N(CCO)CCCN(C)C)nc(N(CCCC)CCCC)n1 [Example V, 2,4-bis(dibutylamino)-6-[3-dimethylamino-N-(2-hydroxyethyl)propylamino]-s-triazine] | – | – | – | 95 °C | 197 °C | Resin | 25 °C | Foam | –
CCN(CC)CCN(C)c1nc(N(C)CCO)nc(N(C)CCN(CC)CC)n1 [Example VI, 2,4-bis(N-methyl-2-diethylaminoethylamino)-6-(N-methyl-2-hydroxyethylamino)-s-triazine] | – | – | – | 94 °C | 140 °C | Resin | 25 °C | Foam | 177 °C
CN(C)CCCN(CCCN(C)C)c1nc(N(C)CCO)nc(N(CCCN(C)C)CCCN(C)C)n1 [Example IV, 2,4-bis[bis(3-dimethylaminopropyl)amino]-6-(N-methyl-2-hydroxyethylamino)-s-triazine] | 100 °C | 188 °C | Foam | – | – | – | – | – | –
CCN(CC)c1nc(N(C)CCO)nc(N(CC)CC)n1 [DMT, 2,4-bis(diethylamino)-6-N-methylethanolamine-s-triazine, reference compound] | – | – | – | 124 °C | 185 °C | Foam | 25 °C | No Foam | –
